Reference: article PMC13360702, “An Agonist/Antagonist Photo‐Switchable Vitamin D Mimetic Enables Bidirectional Optical Control of VDR” (Angewandte Chemie (International Ed. in English), 2026)
Like-named read-outs stand apart in the source and are kept apart here.

Assays:
[1] = photophysical characterization (photo‐switching, thermal relaxation); format: physicochemical; conditions: room temperature (∼21°C); pre‐illuminated at 365 nm for 30 min, then dark; (E)/(Z) ratios by NMR
Method: FIGURE 2 Development and characterization of the light‐activated vitamin D mimetic photo‐vitD (10). (a) Structure activity relationship of photo‐switchable VDR agonists 4–10. Compounds were tested in a cellular Gal4‐VDR hybrid reporter gene assay. Relative activation is normalized to the effect of 2 (1 µM) set as 100% activation. The (Z)‐states of the compounds were maintained with a Cell‐Disco [24] (370 nm). […] Data in agonist (EC50) and antagonist mode (IC50; vs. 0.3 µM 2) are shown for (E)‐ and (Z)‐10. The corresponding dose‐response curves are shown in (d). (b) Predicted binding mode of (E)‐7 (green) in the VDR ligand binding site (pdb ID 4g1d). […] (c) Predicted binding mode of (Z)‐10 (yellow) in the VDR ligand binding site. The altered regiochemistry conveys strong preference for the light‐induced (Z)‐configuration and the extended naphthoic acid motif enables a strong ionic contact to R302. (d) Dose‐response curves of (E)‐ (dark) and (Z)‐10 (370 nm) in the Gal4‐VDR reporter gene assay in agonist (top) and antagonist mode (bottom, with 0.3 µM calcitriol (2)). (Z)‐10 activated VDR; (E)‐10 and (Z)‐10 antagonized VDR activation by 0.3 µM calcitriol (2). (Z)‐10 was maintained with a Cell‐Disco [24] (370 nm). […] Absorbance was measured at 351 nm with a 25 µM solution in DMSO, one cycle is 30 sec. […] (E)/(Z) ratios were measured by NMR. […]

ASC52telo hTERT cells = test: in vitro osteogenesis model (ALP activity, von Kossa staining); format: cell-based, human; conditions: osteogenic differentiation over 15 days, dark or Cell‐Disco (370 nm, 100 ms/10 s)
Method: FIGURE 3 Optical control of VDR activity with photo‐vitD (10). (a) 10 (1 µM) enabled light‐dependent in‐cell activation of VDR in a fluorescent (mCherry) reporter gene assay. Gray curve: dark; blue curve: Cell‐Disco (370 nm; 100 ms/10 s); yellow curve: dark for 10 h, then Cell‐Disco (370 nm); magenta curve: Cell‐Disco (370 nm) for 10 h, then Cell‐Disco (450 nm). Lines are the mean, shadows are S.E.M.; n = 6. (b–d) Phenotypic model of bone formation using human […] (ASC52telo hTERT cells) and cyclic treatment with dexamethasone, 2‐phospho‐L‐ascorbic acid, and glycerol 2‐phosphate over 15 days to induce osteogenesis. Alkaline phosphatase (ALP) activity (b) and von Kossa staining of hydroxyapatite (c; representative photomicrographs in d) were used as markers of osteogenesis. Experiments were performed in the dark (gray bars) and using a Cell‐Disco (370 nm, 100 ms/10 s; blue bars). Data are the mean±SD, n = 6. * p<0.05, ** p<0.01, *** p<0.001 (vs. respective dark or illuminated DMSO (diff.) ctrl or as indicated; ANOVA with Dunnett's multiple comparisons test).
Photo‐vitD (10) thus appeared suitable for application as tool for VDR control in complex phenotypic settings. […] Photo‐vitD (10) thus enabled bidirectional optical control of osteogenesis in cellulo based on its ability to switch between agonist and antagonist states. […]
experiment was repeated independently three times. CellDiscos[9] were used for pulsed irradiation at 370 nm or 450 nm to switch 10 between photostationary states. The live cells were assayed for fluorescence reporter intensity at multiple time points over 36 h. Fluorescence intensity (FI) was measured (λex 585/10 nm, λem 610/10 nm) in bottom reading mode with a Tecan Spark Cyto (Tecan Deutschland GmbH).
Fold FI was obtained by dividing the mean F I of a test sample by the mean FI of the untreated control of the respective measurement (time point).
In vitro osteogenesis model. […] Absorbance was measured at 410 nm for 60 min every 5 min with an increase in absorbance reflecting phosphatase activity (nmol/min). For quantification via linear […]

VDR = target: T1, VDR (Homo sapiens, UniProt P11473); test: Gal4‐VDR hybrid reporter gene assay, agonist mode; format: cell-based; conditions: for EC50: HEK293T cells, mean±S.E.M., n≥3
T1 construct: -CMV-VDR-LBD coding for the hinge region and; expressed in transfected cells; host or cells: HEK293T
T1 sequence (P11473 127-423 limits assumed): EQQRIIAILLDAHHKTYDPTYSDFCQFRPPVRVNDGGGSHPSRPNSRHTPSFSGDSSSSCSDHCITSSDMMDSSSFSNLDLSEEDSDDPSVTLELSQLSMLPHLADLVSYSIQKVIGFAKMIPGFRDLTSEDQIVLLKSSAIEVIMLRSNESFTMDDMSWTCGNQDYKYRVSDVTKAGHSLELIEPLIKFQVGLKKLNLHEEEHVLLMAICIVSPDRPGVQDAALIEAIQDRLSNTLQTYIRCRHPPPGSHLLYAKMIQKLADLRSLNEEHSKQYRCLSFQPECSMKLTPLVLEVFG
Method: FIGURE 2 Development and characterization of the light‐activated vitamin D mimetic photo‐vitD (10). (a) Structure activity relationship of photo‐switchable VDR agonists 4–10. Compounds were tested in a cellular Gal4‐VDR hybrid reporter gene assay. Relative activation is normalized to the effect of 2 (1 µM) set as 100% activation. The (Z)‐states of the compounds were maintained with a Cell‐Disco [24] (370 nm). […] Data in agonist (EC50) and antagonist mode (IC50; vs. 0.3 µM 2) are shown for (E)‐ and (Z)‐10. The corresponding dose‐response curves are shown in (d). (b) Predicted binding mode of (E)‐7 (green) in the VDR ligand binding site (pdb ID 4g1d). […] (c) Predicted binding mode of (Z)‐10 (yellow) in the VDR ligand binding site. The altered regiochemistry conveys strong preference for the light‐induced (Z)‐configuration and the extended naphthoic acid motif enables a strong ionic contact to R302. (d) Dose‐response curves of (E)‐ (dark) and (Z)‐10 (370 nm) in the Gal4‐VDR reporter gene assay in agonist (top) and antagonist mode (bottom, with 0.3 µM calcitriol (2)). (Z)‐10 activated VDR; (E)‐10 and (Z)‐10 antagonized VDR activation by 0.3 µM calcitriol (2). (Z)‐10 was maintained with a Cell‐Disco [24] (370 nm). Data are the mean±S.E.M. relative VDR act. vs. 0.3 µM calcitriol (2), n≥3. (e) Activity profile of 10 (1 µM) on nuclear receptors showing exclusive VDR activation by the light‐activated state. 10 was tested in a panel of uniform Gal4‐NR hybrid reporter gene assays. (Z)‐10 was maintained with a Cell‐Disco [24] (370 nm). Data are the mean±SD, n = 3. (f) Representative UV/Vis spectra of 10 as (E)‐ (dark) and (Z)‐states (PSS 365 nm), and after switching back to (E) with 465 nm. (g) (E)/(Z)‐ratios of 10 in the dark‐adapted state, after illumination at 365 nm for 5 min and after switching back from mostly‐(Z) with 465 nm for 5 min. (h) 10 could be rapidly and reversibly switched between the (E)‐ and (Z)‐states over multiple cycles by alternating irradiation at 365 and 465 nm. Absorbance was measured at 351 nm with a 25 µM solution in DMSO, one cycle is 30 sec. […] 10 was pre‐illuminated at 365 nm for 30 min and then kept in the dark. (E)/(Z) ratios were measured by NMR. (j) Binding mode prediction of (E)‐ and (Z)‐10 to the VDR‐antagonist complex 2zxm (residues numbered according to [21]). (Z)‐10 (yellow) forms an agonist‐like binding mode with several polar interactions at both ends of the pocket. (E)‐10 (cyan) is also anchored at the distal end of the pocket by an H‐bond network with R302 and the D176 backbone but due to the (E)‐configuration, the β‐naphthoic acid residue protrudes deeper and the pentan‐3‐ol motif rotates away from H333/H423. Therefore, (E)‐10 lacks stabilizing/activating contacts with the H333/H423 region rationalizing its antagonist properties.
Gal4-hybrid reporter gene assays. Reporter gene assays were performed in HEK293T cells (German Collection of Microorganisms and Cell Culture GmbH, DSMZ) as reported previously using Gal4 -NR LBD fusion receptor plasmids each coding for the hinge region and LBD of the canonical isoform of the respective human nuclear receptor.[7,8] pFR-Luc (Stratagene, La Jolla, CA, USA) served as a reporter plasmid and pRL-SV40 (Promega, Madison, WI, USA) was used for normalization of transfection efficiency and test compound toxicity. Cells were cultured in Dulbecco’s modified Eagle’s medium (DMEM), high glucose supplemented with 10% fetal calf serum (FCS), sodium pyruvate (1 mM), penicillin (100 U/mL), and streptomycin (100 μg/mL) at 37 °C and 5% CO2, and seeded in 96-well plates (3 × 10^4 cells/well). After 24 h, the medium was changed to Opti -MEM without supplements, and cells were transiently transfected using Lipofectamine LTX reagent (Invitrogen, Carlsbad, CA, USA) according to the manufacturer’s protocol. Five hours after transfection, cells were incubated with the test compounds […]

[2] = (Z)‐state maintained with Cell‐Disco (370 nm), read-out: VDR modulation light-activated (Z): EC50
[3] = dark‐adapted (E)‐state, read-out: VDR modulation dark (E): EC50

With CCCc1cc(C(O)(CC)CC)ccc1-c1ccc(/N=N\c2ccc3cc(C(=O)O)ccc3c2)cc1C [(Z)‐10] the “thermal relaxation half‐life” value [1] was 29 h and the “effect on osteogenesis (ALP activity, von Kossa staining positive area)” value (shortened to “effect on osteogenesis”) (ASC52telo hTERT cells) was “resembled the effects of calcitriol with weaker efficacy”.

For CCCc1cc(C(O)(CC)CC)ccc1-c1cc(/N=N/c2ccc(CO)c(CO)c2)ccc1C [compound 4], the EC50 (VDR; [2]) was 0.14 ± 0.3 µM, the “activity difference between the dark‐adapted (E)‐ and the light‐induced (Z)‐isomers” value (VDR; VDR agonism, (E) vs (Z)) was 4 fold and the EC50 (VDR; [3]) was 0.6 ± 0.2 µM.

In the case of C=C1/C(=C\C=C2/CCC[C@]3(C)[C@@H]([C@H](C)CCCC(C)(C)O)CC[C@@H]23)C[C@@H](O)C[C@@H]1O [compound 2, 1,25‐dihydroxyvitamin D, reference compound], the “effect on osteogenesis” value (ASC52telo hTERT cells) is reported as “counteracted bone formation”.

CCCc1cc(C(O)(CC)CC)ccc1-c1cc(/N=N/c2ccc(C(=O)O)c(O)c2)ccc1C [compound 7] showed an EC50 (VDR; [2]) of 0.31 ± 0.04 µM and an EC50 (VDR; [3]) of 0.5 ± 0.1 µM.

For CCCc1cc(C(O)(CC)CC)ccc1-c1ccc(/N=N/c2ccc3cc(C(=O)O)ccc3c2)cc1C [(E)‐10], the “effect on osteogenesis” value (ASC52telo hTERT cells) was “promoted osteogenesis”.

In the case of CCCc1cc(C(O)(CC)CC)ccc1-c1ccc(/N=N/c2ccc3[nH]c(=O)[nH]c3c2)cc1C [compound 9], the “VDR modulation light-activated (Z): activation in words” value (VDR; (Z)‐state, Cell‐Disco (370 nm), 10 μM, inactive = no statistically significant activation at the indicated concentration) is reported as “failed to activate VDR” and the “VDR modulation dark (E): activation in words” value (VDR; dark‐adapted (E)‐state, 10 μM, inactive = no statistically significant activation at the indicated concentration) is reported as “failed to activate VDR”.

Compound CCC(O)(CC)c1ccc(-c2cc(/N=N/c3ccc(CO)c(CO)c3)ccc2C)c(C)c1 [compound 5] has an EC50 (VDR; [2]) of 0.92 ± 0.06 µM and an EC50 (VDR; [3]) of 1 ± 0.2 µM.

For CCCc1cc(C(O)(CC)CC)ccc1-c1ccc(/N=N/c2ccc(C(=O)O)c(O)c2)cc1C [compound 8], the EC50 (VDR; [2]) was 1.4 ± 0.2 µM and the EC50 (VDR; [3]) was > 10 µM.

For CCCCc1cc(C(O)(CC)CC)ccc1-c1cc(/N=N/c2ccc(CO)c(CO)c2)ccc1C [compound 6], the EC50 (VDR; [2]) was 1.1 ± 0.2 µM and the EC50 (VDR; [3]) was 1.8 ± 0.3 µM.
